# Assay results reported in patent US9006294B2, “Oral pharmaceutical formulation of pelubiprofen with improved dissolution rate and stability” (Daewon Pharm., Co., Ltd., priority 2008, dated 2015).
# Columns and labels:
# [1] = Related compounds in pelubiprofen combined with single additives, stored two weeks at 60° C.; type: physicochemical; conditions: pelubiprofen 20 mg plus additive
# Protocol: Increased amounts of related compounds were measured after oral pharmaceutical formulations with different mean particle sizes (27.4 μm, 45.6 μm) of pelubiprofen in combination with different amounts of various additives were stored for two weeks under the severe condition of 60° C.
# [2] = Dissolution test of pelubiprofen tablets, Paddle Method of Korean Pharmacopoeia; type: physicochemical
# Source text: In accordance with the present invention, mean particle size of pelubiprofen preferably ranges from 1 to 30 μm. For example, pelubiprofen particles are difficult to prepare when less than 1 μm in mean particle size, although their dissolution rate increases thanks to the increased surface area thereof. On the other hand, pelubiprofen particles exceeding 30 μm in size have a decreased dissolution rate.
# Pelubiprofen tablets differing in the mean particle size of pelubiprofen and the kinds and content of additives were measured for dissolution rate as follows.
# A dissolution test was performed on the pelubiprofen tablets prepared in Examples 1 to 20 and Comparative Examples 1 to 18.
# The dissolution test was performed according to the procedure of Paddle Method described in Korean Pharmacopoeia. In this regard, one tablet was tested in 900 mL of a dissolution medium (pH 1.2) at 37±0.5° C., with a maintenance of paddle rotation speed at 50 rpm. After a 45-min test, the dissolution medium was taken and filtered through a 0.45 μm filter, followed by the UV analysis of the filtrate.
smiles,measurement,setting,value
"CC(C(=O)O)c1ccc(/C=C2\CCCCC2=O)cc1 (centres unmarked) [pelubiprofen, 2-[4-(2-oxocyclohexylidenemethyl)phenyl]propionic acid]",Increase of Related Cpd.,[1]; MPS of pelubiprofen 27.4 μm,9.5%
same,Total Related Cpd.,[1]; MPS of pelubiprofen 27.4 μm,0.461%
same,Increase of Related Cpd.,[1]; MPS of pelubiprofen 45.6 μm,2.6%
same,Total Related Cpd.,[1]; MPS of pelubiprofen 45.6 μm,0.432%
same,dissolution rate,[2]; mean particle size of pelubiprofen 9.3 μm,85.8%
same,dissolution rate,[2]; mean particle size of pelubiprofen 19.1 μm,75.3%
same,dissolution rate,[2]; mean particle size of pelubiprofen 27.4 μm,70.4%
same,dissolution rate,[2]; mean particle size of pelubiprofen 45.6 μm,41.4%
